Reference: PMC11851448, “Meliponini Geopropolis Extracts Induce ROS Production and Death in Leishmania amazonensis Promastigotes and Axenic Amastigotes In Vitro” (Biology, 2025)

Target: T1, LiARG (recombinant arginase from L. infantum) (Leishmania infantum, UniProt A4IB49)
T1 construct: gene LINJ_35_1490; recombinant, purified
Test: urea release, colorimetric UREA CE kit, […] nm
Assay type: biochemical

Compound `O=c1c(O)c(-c2ccc(O)c(O)c2)oc2cc(O)cc(O)c12` [quercetin] has an IC50 of 23.2 µM.
